According to ChEMBL document CHEMBL3351996, “Carbonic anhydrase inhibitory activity of sulfonamides and carboxylic acids incorporating cyclic imide scaffolds” (Bioorg Med Chem Lett, 2014):

Legend:
Carbonic anhydrase 2 = Carbonic anhydrase 2 (Homo sapiens, UniProt P00918); assay: Inhibition of human carbonic anhydrase 2 by stopped-flow CO2 hydrase assay
Carbonic anhydrase 12 = Carbonic anhydrase 12 (Homo sapiens, UniProt O43570)
Description: Inhibition of human carbonic anhydrase 12 by stopped-flow CO2 hydrase assay

Carbonic anhydrase 1 = Carbonic anhydrase 1 (Homo sapiens, UniProt P00915); assay: Inhibition of human carbonic anhydrase 1 by stopped-flow CO2 hydrase assay
Carbonic anhydrase 9 = Carbonic anhydrase 9 (Homo sapiens, UniProt Q16790)
Description: Inhibition of human carbonic anhydrase 9 by stopped-flow CO2 hydrase assay

Carbonic anhydrase 12, sequence (O43570 whole entry): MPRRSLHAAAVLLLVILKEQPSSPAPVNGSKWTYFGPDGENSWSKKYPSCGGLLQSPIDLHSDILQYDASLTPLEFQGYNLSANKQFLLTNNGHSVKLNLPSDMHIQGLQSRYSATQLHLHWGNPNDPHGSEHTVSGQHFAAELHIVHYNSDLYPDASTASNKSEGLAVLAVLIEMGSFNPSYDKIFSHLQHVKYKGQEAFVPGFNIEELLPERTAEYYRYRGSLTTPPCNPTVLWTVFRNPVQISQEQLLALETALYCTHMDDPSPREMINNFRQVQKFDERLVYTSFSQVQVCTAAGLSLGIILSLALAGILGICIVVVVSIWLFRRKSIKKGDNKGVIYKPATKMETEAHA
Carbonic anhydrase 1, sequence (P00915 whole entry): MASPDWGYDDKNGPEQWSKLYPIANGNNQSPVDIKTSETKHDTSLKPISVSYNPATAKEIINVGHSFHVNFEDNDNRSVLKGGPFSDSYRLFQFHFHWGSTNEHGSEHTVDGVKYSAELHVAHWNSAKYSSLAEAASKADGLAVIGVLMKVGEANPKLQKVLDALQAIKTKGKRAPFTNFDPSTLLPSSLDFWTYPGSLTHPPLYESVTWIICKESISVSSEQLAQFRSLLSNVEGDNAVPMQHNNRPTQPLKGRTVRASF

Row | Compound | Ki (Carbonic anhydrase 2) | Ki (Carbonic anhydrase 12) | Ki (Carbonic anhydrase 1) | Ki (Carbonic anhydrase 9)
1 | O=C(O)c1ccc(N2C(=O)c3cccc4cccc(c34)C2=O)cc1 | > 1000 nM | 1.2 nM | > 1000 nM | 5.9 nM
2 | O=C(O)c1ccc(N2C(=O)c3c(Cl)c(Cl)c(Cl)c(Cl)c3C2=O)cc1 | > 1000 nM | – | – | 4.4 nM
3 | NS(=O)(=O)c1ccc(CN2C(=O)c3nccnc3C2=O)cc1 | – | – | – | 5.9 nM
4 | NS(=O)(=O)c1ccc(N2C(=O)c3nccnc3C2=O)cc1 | – | – | – | 2.9 nM
5 | O=C(O)c1ccc(N2C(=O)c3nccnc3C2=O)cc1 | > 1000 nM | – | > 1000 nM | 22.1 nM
6 | NS(=O)(=O)c1ccc(CN2C(=O)c3cccc4cccc(c34)C2=O)cc1 | – | – | – | 4.6 nM
7 | NS(=O)(=O)c1ccc(N2C(=O)c3cccc4cccc(c34)C2=O)cc1 | – | – | – | 4.9 nM
8 | NS(=O)(=O)c1ccc(CN2C(=O)CCC2=O)cc1 | – | – | – | 29.3 nM
9 | NS(=O)(=O)c1ccc(N2C(=O)CCC2=O)cc1 | – | – | – | 10.8 nM
10 | O=C(O)c1ccc(N2C(=O)CCC2=O)cc1 | > 1000 nM | – | – | 506 nM
11 | NS(=O)(=O)c1ccc(CN2C(=O)[C@H]3CC=CC[C@H]3C2=O)cc1 | – | – | – | 2.6 nM
12 | NS(=O)(=O)c1ccc(N2C(=O)[C@H]3CC=CC[C@H]3C2=O)cc1 | 4.8 nM | 0.57 nM | 31.2 nM | 4.4 nM
13 | NS(=O)(=O)c1ccc(CN2C(=O)c3ccccc3C2=O)cc1 | – | – | – | 4.1 nM
14 | O=C(O)c1ccc(N2C(=O)c3cc(Cl)c(Cl)cc3C2=O)cc1 | > 1000 nM | – | – | 41.6 nM
15 | NS(=O)(=O)c1ccc(CN2C(=O)c3c(Cl)c(Cl)c(Cl)c(Cl)c3C2=O)cc1 | – | – | – | 3.1 nM

The remaining lines, values ahead:

Row | Ki (Carbonic anhydrase 2) | Ki (Carbonic anhydrase 12) | Ki (Carbonic anhydrase 1) | Ki (Carbonic anhydrase 9) | Compound
16 | > 1000 nM | – | > 1000 nM | – | O=C(O)c1ccc(N2C(=O)c3ccc([N+](=O)[O-])cc3C2=O)cc1
17 | 26.2 nM | 0.85 nM | 21.8 nM | 5.9 nM | Cc1ccc2c(c1)C(=O)N(Cc1ccc(S(N)(=O)=O)cc1)C2=O
18 | – | – | – | 3.3 nM | Cc1ccc2c(c1)C(=O)N(c1ccc(S(N)(=O)=O)cc1)C2=O
19 | > 1000 nM | – | – | 350 nM | Cc1ccc2c(c1)C(=O)N(c1ccc(C(=O)O)cc1)C2=O
20 | – | – | – | 2.4 nM | CC(C)(C)c1ccc2c(c1)C(=O)N(c1ccc(S(N)(=O)=O)cc1)C2=O
21 | > 1000 nM | – | – | 428 nM | CC(C)(C)c1ccc2c(c1)C(=O)N(c1ccc(C(=O)O)cc1)C2=O
22 | 166 nM | 18.7 nM | 30.2 nM | 4.9 nM | O=C(O)c1ccc(N2C(=O)c3ccccc3C2=O)cc1
23 | – | – | – | 3.8 nM | NS(=O)(=O)c1ccc(N2C(=O)c3ccccc3C2=O)cc1
